Patent US9302012B2, “Anti-bacterial siderophore-aminopenicillin conjugates” (University of Notre Dame Du Lac, priority 2012, dated 2016)
In brackets after ≈: the same amount, converted by molar mass. Like-named read-outs stand apart in the source and are kept apart here.

Tests used:
[1] = system: E. coli H1876 (fepA−, cir−, fiu−); assay: Agar diffusion antibacterial susceptibility assay; assay type: cell-based, Escherichia coli; conditions: for Diameter of growth inhibition zones: E. coli H1876 (fepA−, cir−, fiu−), −Fe agar, 50 μL of 0.2 mM solution, 37° C., 24 hours
Experimental: (§1) All liquids and media were sterilized by autoclaving (121° C., 15 min) before use. All aqueous solutions and media were prepared using distilled, deionized, and filtered water (Millipore Milli-Q Advantage A10 Water Purification System). Luria broth (LB) was purchased from VWR. Mueller-Hinton No. 2 broth (MHII broth; cation adjusted) was purchased from Sigma-Aldrich (St. Louis, Mo.). Iron-deficient (—Fe) MHII broth was prepared by adding 0.8 mL of a 1 mg/mL sterile aq. solution of 2,2′-bipyridine to 49.2 mL of MHII broth. Iron-rich (+Fe) MHII broth was prepared by adding 0.8 mL of a 1 mg/mL sterile aq. solution of FeCl3 to 49.2 mL of MHII broth. Mueller-Hinton No. 2 agar (MHII agar; HiMedia Laboratories) was purchased from VWR. Iron-deficient (−Fe) MHII agar was prepared by adding 0.5 mL of a 1 mg/mL sterile aq. solution of 2,2′-bipyridine to 34 mL of melted MHII agar with gentle mixing. Iron-rich (+Fe) MHII agar was prepared by adding 0.5 mL of a 1 mg/mL sterile aq. solution of FeCl3 to 34 mL of melted MHII agar with gentle mixing. See also Wencewicz, T. A. Dissertation, University of Notre Dame, Notre Dame, Ind., 2011, for relevant techniques.
(§2) Antibacterial Susceptibility Testing by the Agar Diffusion Assay.
(§3) Antibacterial activity of the compounds was determined by a modified Kirby-Bauer agar diffusion assay. Overnight cultures of test organisms were grown in LB broth for 18-24 h and standard suspensions of […] were prepared in saline solution (0.9% NaCl) according to a 0.5 BaSO4 McFarland Standard. This standardized suspension (0.1 mL) was added to 34 mL of sterile, melted agar (−Fe or +Fe) tempered to 47-50° C. After gentle mixing, the inoculated agar media was poured into a sterile plastic petri dish (145 mm×20 mm) and allowed to solidify near a flame with the lid ajar for about 30 min. Wells of 9.0 mm diameter were cut from the petri dish agar and filled with exactly 50 μL of the test sample solution. The petri dish was incubated at 37° C. for 18-24 h and the inhibition zone diameters were measured (mm) with an electronic caliper after 24 h.

P. aeruginosa PAO1 [2] = assay: Agar diffusion antibacterial susceptibility assay; assay type: cell-based; conditions: Pseudomonas aeruginosa, PAO1, 24 h, 50 μL of 0.2 mM solution, 37° C., read-out: Diameter of growth inhibition zones
Experimental: as §1, §2, §3

E. coli ATCC 25922 = assay: MIC90 by broth microdilution assay; assay type: cell-based, Escherichia coli; conditions: for MIC90: Escherichia coli, ATCC25922, 20 h, E. coli ATCC 25922, 37° C., 20 h
Experimental: (§4) ^aMIC90 values (μM) were determined using the broth microdilution method in Mueller-Hinton broth No. 2 (MHII) with visual end point analysis according to the CLSI guidelines (Methods for Dilution Antimicrobial Susceptibility Tests for Bacteria that Grow Aerobically, 8th ed. (Villanova, Pa., USA), Clinical and Laboratory Standards Institute (CLSI), 2009, approved standard document M07-A7). ^bEach compound was tested in triplicate.
as §1
(§5) Determination of MIC90 Values by the Broth Microdilution Assay.
(§6) Antibacterial activity of the compounds was determined by measuring their minimum inhibitory concentrations (MIC90's) using the broth microdilution method according to the Clinical and Laboratory Standards Institute (CLSI, formerly the NCCLS) guidelines. Each well of a 96-well microtiter plate was filled with 50 μL of sterile broth media (−Fe or +Fe). Each test compound was dissolved in DMSO making a 20 mM solution, and then diluted with sterile broth media (−Fe or +Fe) to 400 or 800 μM. Exactly 50 μL of the compound solution was added to the first well of the microtiter plate and 2-fold serial dilutions were made down each row of the plate. Exactly 50 μL of bacterial inoculum (5×10^5 CFU/mL in broth media) was then added to each well giving a total volume of 100 μL/well. The plate was incubated at 37° C. for 20 h and then each well was examined for bacterial growth. The MIC90 was recorded as the lowest compound concentration (μM) required to inhibit 90% of bacterial growth as judged by turbidity of the culture media relative to a row of wells filled with a DMSO standard.

P. aeruginosa KW799/wt [3] = assay: MIC90 by broth microdilution assay; assay type: cell-based; conditions: Pseudomonas aeruginosa, 20 h, 37° C.
Experimental: as §4, §1, §5, §6

P. aeruginosa Pa4 [4] = assay: MIC90 by broth microdilution assay; assay type: cell-based; conditions: Pseudomonas aeruginosa, PA4, 20 h, 37° C.
Experimental: as §4, §1, §5, §6

P. aeruginosa PAO1 [5] = assay: MIC90 by broth microdilution assay; assay type: cell-based; conditions: Pseudomonas aeruginosa, PAO1, 20 h, 37° C.
Experimental: as §4, §1, §5, §6

P. aeruginosa KW799/61 = assay: MIC90 by broth microdilution assay; assay type: cell-based; conditions: Pseudomonas aeruginosa, KW799/61, 20 h
Experimental: as §4, §1, §5, §6

[6] = system: K. pneumoniae ATCC 8303 X68; assay: MIC90 by broth microdilution assay; assay type: cell-based; conditions: Klebsiella pneumoniae; for MIC90: ATCC8303, 20 h, K. pneumoniae ATCC 8303 X68, 37° C., 20 h
Experimental: as §4, §1, §5, §6

[7] = system: various wild type strains of P. aeruginosa; assay: MIC by broth microdilution (text summary over strains); assay type: cell-based; conditions: Pseudomonas aeruginosa, iron-deficient medium, read-out: MICs against various wild type strains of P. aeruginosa
Experimental: as §1

P. aeruginosa KW799/wt [8] = assay: Agar diffusion antibacterial susceptibility assay; assay type: cell-based, Pseudomonas aeruginosa; conditions: 50 μL of 0.2 mM solution, 37° C.; for zone of inhibition at 200 µM: Pseudomonas aeruginosa, KW799/WT, 24 h, read-out: Diameter of growth inhibition zones
Experimental: as §1, §2, §3

P. aeruginosa Pa4 [9] = assay: Agar diffusion antibacterial susceptibility assay; assay type: cell-based, Pseudomonas aeruginosa; parameters: key to Diameter of growth inhibition zones: partially clear inhibition zone/colonies in the inhibition zone; P: unclear inhibition zone/many colonies in the inhibition zone; indicates only a hint of growth inhibition detectable; conditions: 50 μL of 0.2 mM solution, 37° C.; for zone of inhibition at 200 µM: Pseudomonas aeruginosa, PA4, 24 h, read-out: Diameter of growth inhibition zones
Experimental: as §1, §2, §3

[10] = −Fe (iron-deficient) MHII broth
[11] = read-out: MIC (MIC90), P. aeruginosa KW799/61, +Fe (iron-rich) MHII broth, 37° C.
[12] = read-out: MIC (MIC90), P. aeruginosa KW799/61, −Fe (iron-deficient) MHII broth, 37° C.

| Compound | Diameter of growth inhibition zones [1] | zone of inhibition at 200 µM (P. aeruginosa PAO1 [2]; +Fe agar) [mm] | zone of inhibition at 200 µM (P. aeruginosa PAO1 [2]; −Fe agar) [mm] | MIC90 (E. coli ATCC 25922; +Fe (iron-rich) MHII broth) [µM] | MIC90 (E. coli ATCC 25922; [10]) [µM] | MIC90 (P. aeruginosa KW799/wt [3]; +Fe (iron-rich) MHII broth) [µM] | MIC90 (P. aeruginosa KW799/wt [3]; [10]) [µM] | MIC90 (P. aeruginosa Pa4 [4]; +Fe (iron-rich) MHII broth) [µM] | MIC90 (P. aeruginosa Pa4 [4]; [10]) [µM] | MIC90 (P. aeruginosa PAO1 [5]; +Fe (iron-rich) MHII broth) [µM] | MIC90 (P. aeruginosa PAO1 [5]; [10]) [µM] | MIC90 (P. aeruginosa KW799/61; [11]) [µM] | MIC90 (P. aeruginosa KW799/61; [12]) [µM] | MIC90 ([6]; +Fe (iron-rich) MHII broth) [µM] | MIC90 [6, 10] [µM] | MIC [7] [µM] | zone of inhibition at 200 µM (P. aeruginosa Pa4 [9]; +Fe agar) [mm] | other results |
| --- | --- | --- | --- | --- | --- | --- | --- | --- | --- | --- | --- | --- | --- | --- | --- | --- | --- | --- |
| CC1(C)S[C@@H]2[C@H](NC(=O)[C@H](N)c3ccccc3)C(=O)N2[C@H]1C(=O)O [Ampicillin, reference compound] | 0 mm | 0 | 0 | 16.7 (≈ 5.84 µg/mL) | 12.5 (≈ 4.37 µg/mL) | > 200 | > 200 | > 200 | > 100 | > 200 | > 100 | 0.52 (≈ 0.182 µg/mL) | 0.78 (≈ 0.273 µg/mL) | > 200 | > 100 | > 100 | 0 | zone of inhibition at 200 µM ([1]; Escherichia coli, 24 h, read-out: Diameter of growth inhibition zones): 0 mm; Diameter of growth inhibition zones (P. aeruginosa KW799/wt [8]; −Fe agar, 24 hours): 23p; Diameter of growth inhibition zones (P. aeruginosa Pa4 [9]; −Fe agar, 24 hours): h |
| CC(=O)Oc1cccc(C(=O)NCCCC(CCCNC(=O)c2cccc(OC(C)=O)c2OC(C)=O)(CCCNC(=O)c2cccc(OC(C)=O)c2OC(C)=O)NC(=O)CCC(=O)NC(C(=O)NC2C(=O)N3C2SC(C)(C)C3C(=O)O)c2ccc(O)cc2)c1OC(C)=O (stereo not drawn) [Compound 11] | 14p | 0 | 19 | 100 (≈ 131 µg/mL) | 6.25 (≈ 8.19 µg/mL) | 25 (≈ 32.8 µg/mL) | 0.05 (≈ 0.0655 µg/mL) | 25 (≈ 32.8 µg/mL) | 0.21 (≈ 0.275 µg/mL) | 50 (≈ 65.5 µg/mL) | 0.39 (≈ 0.511 µg/mL) | 12.5 (≈ 16.4 µg/mL) | 0.083 (≈ 0.109 µg/mL) | > 200 | > 100 | 0.05 to 0.39 (≈ 0.0655 to 0.511 µg/mL) | 0 | potency against E. coli relative to amoxicillin (in words) (E. coli ATCC 25922; MIC compared with parent drug): almost as equipotent as amoxicillin; MIC ([6]; ATCC8303, stated as inactive, read-out: MIC against K. pneumoniae): > 100 µM; zone of inhibition at 200 µM (P. aeruginosa KW799/wt [8]; +Fe agar): 25 mm; zone of inhibition at 200 µM (P. aeruginosa KW799/wt [8]; −Fe agar): 26 mm; zone of inhibition at 200 µM (P. aeruginosa Pa4 [9]; −Fe agar): 20 mm |
